These results are taken from patent US4175081A, “5-Substituted thiadiazole ureas” (priority 1977, dated 1979).

Experiment [1] concerns Yellow foxtail grass (YF). Nature of the experiment: Pre-emergence herbicide test. The experiment is classed as in vivo, Setaria glauca. As to conditions: Setaria, 336 h, 8 lb/acre, two weeks after treatment. In short, it runs like this: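 Seeds surface-sown in potting soil one day before spraying; compounds applied pre-emergence at 8 or 4 lbs/acre in 38 gallons/acre spray. Pots held in greenhouse with sub-irrigation only. Injury or control rated visually two weeks after treatment.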

For experiment [2], the system named is Amaranth pigweed (PW). Nature of the experiment: Pre-emergence herbicide test. It is filed as in vivo, Amaranthus retroflexus. The following applies: 336 h, 8 lb/acre, two weeks after treatment. In short, it runs like this:
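Pigweed was surface-seeded in potted soil one day before spraying at 8 lbs compound per acre, or 4 lbs/acre, in 38 gallons per acre. Pots were kept in the greenhouse with sub-irrigation only; injury or control was rated visually two weeks after treatment.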

The test system of experiment [3] is Johnson grass (JG). Nature of the experiment: Post-emergence herbicide test. The following applies: Sorghum halepense, 336 h, 8 lb/acre, two weeks after treatment. It is filed as in vivo, Sorgum helepense. Summed up: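 Greenhouse pot-grown seedlings sprayed post-emergence at 8 lbs compound per acre (some at 4 lbs/acre) in 38 gallons per acre spray volume. Sub-irrigated thereafter. Injury/control rated visually two weeks after treatment.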

In experiment [4] the test system is Barnyard grass (BG). Nature of the experiment: Pre-emergence herbicide test. The following applies: Echinochloa crus-galli, 336 h, 8 lb/acre, two weeks after treatment. The experiment is classed as in vivo. In short, it runs like this:
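Barnyard grass surface-seeded in potting soil and sprayed pre-emergence one day after seeding, at 8 or 4 lb compound/acre in 38 gal/acre spray volume. Pots kept in greenhouse with sub-irrigation only; injury or control rated visually two weeks after treatment.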

The test system of experiment [5] is Turnip (TP). Nature of the experiment: Pre-emergence herbicide test. It is filed as in vivo, Brassica sp. The following applies: Brassica rapa, pre-emergence, 336 h; 8 lb/acre; two weeks after treatment. Summed up: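 Turnip (Brassica sp.) seeds were surface sown in 3' plastic pots of potting soil, covered with a thin layer of screened soil, and sub-irrigated in greenhouse trays. Pots were seeded one day ahead of treatment, sprayed pre-emergence under a hood with a fixed nozzle and moving belt, then kept in the greenhouse.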

Experiment [6] concerns Corn (CN). Briefly: Post-emergence herbicide test. The experiment is classed as in vivo. The following applies: Zea mays, 336 h, 8 lb/acre, two weeks after treatment. Summed up: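 Greenhouse seedlings grown in potting soil and sprayed post-emergence at 8 lbs compound/acre (formulations also made for 4 lbs/acre) in 38 gallons/acre spray volume. Watering by sub-irrigation only. Injury or control rated visually two weeks after treatment.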

Experiment [7] relates to variety of crops and weed species. Nature of the experiment: Pre- and post-emergence herbicide tests, overall assessment of Tables III-VI. The experiment is classed as in vivo. As to conditions: data of Tables III-VI. Summed up:
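Crops and weeds grown in potting soil were sprayed at 8 lbs. compound per acre in 38 gallons per acre, pre-emergence pots seeded one day before treatment. Injury or control was visually rated two weeks after treatment.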

Experiment [8] has as its system Crabgrass (CG). Nature of the experiment: Post-emergence herbicide test. It is filed as in vivo, Digitaria sanquinalis. The following applies: Digitaria sanguinalis, post-emergence, 336 h; 8 lb/acre; two weeks after treatment. In short, it runs like this: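 Crabgrass (Digitaria sanquinalis) was surface seeded individually in 3' plastic pots of potting soil, covered with screened soil, and watered by sub-irrigation in greenhouse trays. Planting was staggered so seedlings reached the target stage together. Post-emergence sprays were applied in a hood with a removable belt and fixed nozzle, and control was visually rated two weeks after treatment.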

Experiment [9] concerns Corn (CN). Briefly: Pre-emergence herbicide test. As to conditions: Zea mays, 336 h, 8 lb/acre, two weeks after treatment. The experiment is classed as in vivo. Summed up: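 Four corn seeds per pot, sown at seed-diameter depth one day before spraying, got soil surface treatment at 8 lbs/acre (4 lbs/acre formulations also prepared) in 38 gallons/acre. Pots were greenhouse-held with sub-irrigation only. Injury or control was scored visually two weeks after treatment.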

Experiment [10] has as its system Cotton (CT). Briefly: Post-emergence herbicide test. It is filed as in vivo, Gossypium hirsutum var. DPL smooth leaf. As to conditions: Gossypium hirsutum, post-emergence, 336 h; 8 lb/acre; two weeks after treatment. Summed up: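 Cotton (Gossypium hirsutum var. DPL smooth leaf) was grown in 3' plastic pots of potting soil, four seeds per pot, planted at a depth equal to the seed diameter and watered by sub-irrigation. At the stage of expanded cotyledons with the first true leaf 1' long, plants were sprayed post-emergence in a hood with a fixed nozzle over a moving belt. Percent control was rated visually two weeks later.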

In experiment [11] the test system is Turnip (TP). Nature of the experiment: Post-emergence herbicide test. It is filed as in vivo, Brassica sp. As to conditions: Brassica rapa, post-emergence, 336 h; 8 lb/acre; two weeks after treatment. In short, it runs like this: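 A greenhouse post-emergence herbicide test on turnip. Seeds were sown on the surface of potting soil in 3' plastic pots, lightly covered with screened soil and watered from below. Planting was timed so seedlings had 1 or 2 true leaves above the cotyledons at spraying, done in a hood with a fixed nozzle. Control or injury was scored by eye after two weeks.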

Experiment [12] concerns Cotton (CT). Nature of the experiment: Pre-emergence herbicide test. The experiment is classed as in vivo, Gossypium hirsutum var. DPL smooth leaf. As to conditions: Gossypium hirsutum, 336 h, 8 lb/acre, two weeks after treatment. In short, it runs like this: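 Crop and weed species seeded one day before treatment, then sprayed pre-emergence at 8 lbs actual compound per acre (also 4 lbs/acre formulations) in 38 gallons per acre. Pots kept in greenhouse with sub-irrigation only; injury or control visually rated two weeks after treatment.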

In experiment [13] the test system is Yellow foxtail grass (YF). Nature of the experiment: Post-emergence herbicide test. As to conditions: Setaria, 336 h, 8 lb/acre, two weeks after treatment. The experiment is classed as in vivo, Setaria glauca. In short, it runs like this: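 Potted seedlings grown in greenhouse, planting staggered to reach the target stage together, then sprayed post-emergence at 8 lbs actual compound/acre in 38 gallons/acre (4 lbs/acre formulations also prepared). Sub-irrigated afterwards. Injury or control rated visually two weeks after treatment.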

Experiment [14] concerns Bean (BN). Nature of the experiment: Pre-emergence herbicide test. The following applies: Phaseolus vulgaris, 336 h, 8 lb/acre, two weeks after treatment. The experiment is classed as in vivo, Phaseolus vulgaris var. Black Valentine. Summed up:
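Black Valentine bean was seeded in potting soil one day before spraying. Compound was applied pre-emergence at 8 lbs/acre (also 4 lbs/acre) in 38 gallons per acre. Plants were sub-irrigated and injury or control was rated visually after two weeks.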

Experiment [15] deals with Bean (BN). Nature of the experiment: Post-emergence herbicide test. The experiment is classed as in vivo, Phaseolus vulgaris var. Black Valentine. As to conditions: Phaseolus vulgaris, post-emergence, 336 h; 8 lb/acre; two weeks after treatment. In short, it runs like this: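 Snapbean (Phaseolus vulgaris var. Black Valentine) was tested post-emergence. Four seeds were sown in 3' plastic pots of potting soil at a depth equal to the seed diameter, then sub-irrigated in greenhouse trays. Planting dates were staggered so plants were sprayed once primary leaves had expanded, with the growing point at the primary leaf nodes.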

In experiment [16] the test system is Johnson grass (JG). Nature of the experiment: Pre-emergence herbicide test. The following applies: Sorghum halepense, 336 h, 8 lb/acre, two weeks after treatment. It is filed as in vivo, Sorgum helepense. Summed up:
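Pots seeded one day before spraying; compound applied pre-emergence at 8 lbs/acre (or 4 lbs/acre) in 38 gallons/acre spray volume. Sub-irrigated in greenhouse; injury/control rated visually two weeks after treatment.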

Experiment [17] concerns Barnyard grass (BG). Briefly: Post-emergence herbicide test. The experiment is classed as in vivo. As to conditions: Echinochloa crus-galli, 336 h, 8 lb/acre, two weeks after treatment. In short, it runs like this:
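Greenhouse pot-grown barnyard grass seedlings sprayed post-emergence at 8 lbs active compound per acre (some at 4 lbs/acre) in 38 gallons per acre, then sub-irrigated. Injury or control rated visually two weeks after treatment.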

In experiment [18] the test system is Amaranth pigweed (PW). Briefly: Post-emergence herbicide test. It is filed as in vivo, Amaranthus retroflexus. The following applies: 336 h, 8 lb/acre, two weeks after treatment. Summed up: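 Pot-grown pigweed was sprayed post-emergence at the 1–2 true-leaf stage with compound at rates equivalent to 8 lbs per acre (formulations also prepared for 4 lbs/acre) in 38 gallons per acre, using a hood with fixed nozzle. Plants were sub-irrigated in the greenhouse, and injury or control was rated visually two weeks after treatment.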

In experiment [19] the test system is Crabgrass (CG). Nature of the experiment: Pre-emergence herbicide test. The following applies: Digitaria sanguinalis, pre-emergence, 336 h; 8 lb/acre; two weeks after treatment. The experiment is classed as in vivo, Digitaria sanquinalis. In short, it runs like this:
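Crabgrass (Digitaria sanquinalis) was surface seeded in 3' plastic pots of potting soil, covered with screened soil, and watered by sub-irrigation in greenhouse trays. Pots were seeded one day before spraying in a hood with a moving belt and fixed nozzle. Plants stayed in the greenhouse on sub-irrigation, and pre-emergence control was rated visually two weeks after treatment.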

`C=CCNC(=O)Nc1nnc(C(F)(F)F)s1` [Example 12]: the pest or weed control (as a rule, the degree to which the test organism was suppressed or injured, in per cent) at 8966.8 g/ha stood at 10% in experiment [1]; 10% in the experiment with Amaranth pigweed (PW) [2]; 40% with Johnson grass (JG) [3]; 10% in the experiment on Barnyard grass (BG) [4]; 10% in the experiment with Turnip (TP) [5]; 40% in the experiment on Corn (CN) [6]. Further, the pest or weed control at 8966.8 g/ha was determined as 50% with Crabgrass (CG) [8]; 10% with Corn (CN) [9]; 90% in the experiment on Cotton (CT) [10]; 70% with Turnip (TP) [11]; 30% in the experiment with Cotton (CT) [12]; 40% in experiment [13]. For the same compound, the pest or weed control at 8966.8 g/ha turned out to be 10% with Bean (BN) [14]; 100% in the experiment on Bean (BN) [15]; 10% in the experiment on Johnson grass (JG) [16]; 50% in the experiment on Barnyard grass (BG) [17]; 70% with Amaranth pigweed (PW) [18]; 20% in the experiment with Crabgrass (CG) [19]. Besides, in experiment [7], the “herbicidal effectiveness / selectivity, in words” value was “control post-emergence growth, while have little effect in regard to pre-emergence”.
